Test results taken from article PMC6270420, “Antibacterial Activity of Salicylanilide 4-(Trifluoromethyl)benzoates” (Molecules, 2013).
Values after ≈ are worked out from the molar mass of the structure shown. Where two headings read alike, the source gives them in different places.

Assays:
[1] = tested on: Mycobacterium tuberculosis 331/88 (H37Rv); assay: Antimycobacterial MIC micromethod, Šula's medium; format: cell-based; conditions: read-out: MIC Mtb. 331/88
[2] = tested on: Mycobacterium avium 330/88; assay: Antimycobacterial MIC micromethod; format: cell-based
[3] = tested on: Mycobacterium kansasii 235/80; assay: Antimycobacterial MIC micromethod; format: cell-based; conditions: read-out: MIC M. kansasii 235/80
[4] = tested on: M. kansasii 6509/96 (clinically isolated strain); assay: Antimycobacterial MIC micromethod; format: cell-based; conditions: Mycobacterium kansasii, read-out: MIC M. kansasii 6509/96
Mtb. 7357/1988 = assay: microbe, parasite or virus in culture; format: cell-based; conditions: Mycobacterium tuberculosis, read-out: MIC Mtb. 7357/1988
Mtb. 9449/2006 = assay: microbe, parasite or virus in culture; format: cell-based; conditions: Mycobacterium tuberculosis, read-out: MIC Mtb. 9449/2006
Mtb. 53/2009 = assay: microbe, parasite or virus in culture; format: cell-based; conditions: Mycobacterium tuberculosis, read-out: MIC Mtb. 53/2009
Mtb. 234/2005 = assay: microbe, parasite or virus in culture; format: cell-based; conditions: Mycobacterium tuberculosis, read-out: MIC Mtb. 234/2005
Mtb. Praha 1 = assay: microbe, parasite or virus in culture; format: cell-based; conditions: Mycobacterium tuberculosis, read-out: MIC Mtb. Praha 1
Mtb. Praha 131 (XDR-TB) = assay: microbe, parasite or virus in culture; format: cell-based; conditions: Mycobacterium tuberculosis, read-out: MIC Mtb. Praha 131 (XDR-TB)
[5] = target: T1, mycobacterial isocitrate lyase (ICL1, Rv0467) (Mycobacterium tuberculosis, UniProt P9WKK7); assay: Isocitrate lyase inhibition assay (ICL1); format: biochemical, Mycobacterium tuberculosis H37Rv; conditions: 10 μmol/L; read-out: % ICL inhibition at 10 μmol/L (± standard deviation)
T1 construct: His tag (from pET-28b(+)); made in house; host or cells: E. coli BL21(DE3), pET-28b(+) plasmid
T1 sequence (P9WKK7 1-428): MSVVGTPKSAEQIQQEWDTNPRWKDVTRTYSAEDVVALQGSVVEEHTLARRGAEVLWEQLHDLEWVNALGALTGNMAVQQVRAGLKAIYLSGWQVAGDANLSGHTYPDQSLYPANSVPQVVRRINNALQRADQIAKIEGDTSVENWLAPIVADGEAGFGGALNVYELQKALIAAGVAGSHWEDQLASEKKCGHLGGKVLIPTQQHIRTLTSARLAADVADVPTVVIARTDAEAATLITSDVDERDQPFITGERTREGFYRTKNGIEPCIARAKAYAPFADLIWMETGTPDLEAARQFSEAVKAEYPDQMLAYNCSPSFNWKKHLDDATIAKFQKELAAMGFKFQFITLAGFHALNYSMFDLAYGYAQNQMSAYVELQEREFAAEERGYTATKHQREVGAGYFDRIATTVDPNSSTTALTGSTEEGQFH

[6] = tested on: Enterococcus sp. J 14365/08; assay: Antibacterial microdilution broth method; format: cell-based; conditions: read-out: MIC/IC90 Enterococcus sp. J 14365/08
Procedure: (§1) The in vitro antibacterial activity was assayed against eight Gram-positive and Gram-negative strains: Staphylococcus aureus CCM 4516/08, methicillin-resistant Staphylococcus aureus H 5996/08 (MRSA), Staphylococcus epidermidis H 6966/08, Enterococcus sp. J 14365/08; Escherichia coli CCM 4517, Klebsiella pneumoniae D 11750/08, ESBL-positive Klebsiella pneumoniae J 14368/08, and Pseudomonas aeruginosa CCM 1961.
(§2) The microdilution broth method modified according to standard M07-A07 in Mueller-Hinton broth (HiMedia Laboratories, Mumbai, India) adjusted to pH 7.4 (±0.2) was used. The tested compounds were dissolved in DMSO to the final concentrations ranging from […]. Benzylpenicillin (penicillin G) was used as a comparative drug. Bacterial inoculum in sterile water was prepared to match 0.5 McFarland scale ([…]). The minimum inhibitory concentrations were assayed as 90% (IC90) or higher reduction of growth when compared to the control. The determination of results was performed visually and spectrophotometrically (at 540 nm). The values of MICs were determined after 24 and 48 h of incubation in the darkness at 35 °C (±0.1) in a humid atmosphere.

[7] = tested on: Escherichia coli CCM 4517; assay: Antibacterial microdilution broth method; format: cell-based; conditions: read-out: MIC/IC90 E. coli CCM 4517
Procedure: as §1, §2

[8] = tested on: Staphylococcus aureus CCM 4516/08; assay: Antibacterial microdilution broth method; format: cell-based; conditions: read-out: MIC/IC90 S. aureus CCM 4516/08
Procedure: as §1, §2

[9] = tested on: Staphylococcus epidermidis H 6966/08; assay: Antibacterial microdilution broth method; format: cell-based; conditions: read-out: MIC/IC90 S. epidermidis H 6966/08
Procedure: as §1, §2

[10] = tested on: methicillin-resistant Staphylococcus aureus H 5996/08 (MRSA); assay: Antibacterial microdilution broth method; format: cell-based; conditions: read-out: MIC/IC90 MRSA H 5996/08
Procedure: as §1, §2

[11] = tested on: Gram-positive cocci including MRSA; assay: Antibacterial microdilution, summary for Gram-positive cocci; format: cell-based; conditions: Staphylococcus aureus, read-out: MICs against Gram-positive cocci
Procedure: as §1, §2

Row | SMILES | MIC ([1]; 336 h, 14 d) [µM] | MIC ([1]; 504 h, 21 d) [µM] | MIC ([2]; 330/88, 336 h, 14 d) [µM] | MIC ([2]; 330/88, 504 h, 21 d) [µM] | MIC ([3]; 235/80, 168 h, 7 d) [µM] | MIC ([3]; 235/80, 336 h, 14 d) [µM] | MIC ([3]; 235/80, 504 h, 21 d) [µM] | MIC ([4]; 168 h, 7 d) [µM] | MIC ([4]; 336 h, 14 d) [µM] | MIC ([4]; 504 h, 21 d) [µM] | inhibition at 10 µM [5] [%] | MIC ([6]; SP.J14365/08, 24 h) [µM] | MIC ([6]; SP.J14365/08, 48 h) [µM] | MIC ([7]; CCM4517, 24 h) [µM] | MIC ([7]; CCM4517, 48 h) [µM] | MIC ([8]; CCM4516, 24 h) [µM] | MIC ([8]; CCM4516, 48 h) [µM] | MIC ([9]; H6966/08, 24 h) [µM] | MIC ([9]; H6966/08, 48 h) [µM] | MIC ([10]; 24 h) [µM] | also measured
1 | O=C(Oc1cc(Cl)ccc1C(=O)Nc1cccc(Cl)c1)c1ccc(C(F)(F)F)cc1 [1b] | 4 (≈ 1.82 µg/mL) | 4 (≈ 1.82 µg/mL) | 8 (≈ 3.63 µg/mL) | 8 (≈ 3.63 µg/mL) | 1 (≈ 0.454 µg/mL) | 4 (≈ 1.82 µg/mL) | 4 (≈ 1.82 µg/mL) | 2 (≈ 0.908 µg/mL) | 8 (≈ 3.63 µg/mL) | 8 (≈ 3.63 µg/mL) | 13 ± 1.7 | 7.81 (≈ 3.55 µg/mL) | 15.6 (≈ 7.1 µg/mL) | > 250 | > 250 | 0.98 (≈ 0.445 µg/mL) | 1.95 (≈ 0.886 µg/mL) | 0.98 (≈ 0.445 µg/mL) | 1.95 (≈ 0.886 µg/mL) | 0.98 (≈ 0.445 µg/mL) | MIC (Mtb. 7357/1988; 336 h): 8 µM (≈ 3.63 µg/mL); MIC (Mtb. 7357/1988; 504 h): 8 µM (≈ 3.63 µg/mL); MIC (Mtb. 9449/2006; 336 h): 4 µM (≈ 1.82 µg/mL); MIC (Mtb. 9449/2006; 504 h): 4 µM (≈ 1.82 µg/mL); MIC (Mtb. 53/2009; 336 h): 8 µM (≈ 3.63 µg/mL); MIC (Mtb. 53/2009; 504 h): 8 µM (≈ 3.63 µg/mL); MIC (Mtb. 234/2005; 336 h): 8 µM (≈ 3.63 µg/mL); MIC (Mtb. 234/2005; 504 h): 8 µM (≈ 3.63 µg/mL); MIC (Mtb. Praha 1; 336 h): 4 µM (≈ 1.82 µg/mL); MIC (Mtb. Praha 1; 504 h): 4 µM (≈ 1.82 µg/mL); MIC (Mtb. Praha 131 (XDR-TB); 336 h): 8 µM (≈ 3.63 µg/mL); MIC (Mtb. Praha 131 (XDR-TB); 504 h): 8 µM (≈ 3.63 µg/mL); MIC ([10]; 48 h): 1.95 µM (≈ 0.886 µg/mL); MIC [11]: < 1 µM
2 | O=C(Oc1ccc(Cl)cc1C(=O)Nc1cccc(F)c1)c1ccc(C(F)(F)F)cc1 [1k] | 8 (≈ 3.5 µg/mL) | 8 (≈ 3.5 µg/mL) | 16 (≈ 7 µg/mL) | 32 (≈ 14 µg/mL) | 8 (≈ 3.5 µg/mL) | 16 (≈ 7 µg/mL) | 16 (≈ 7 µg/mL) | 8 (≈ 3.5 µg/mL) | 16 (≈ 7 µg/mL) | 16 (≈ 7 µg/mL) | ≥ 20 | 31.2 (≈ 13.7 µg/mL) | > 250 | > 250 | > 250 | 3.9 (≈ 1.71 µg/mL) | 3.9 (≈ 1.71 µg/mL) | 3.9 (≈ 1.71 µg/mL) | 3.9 (≈ 1.71 µg/mL) | 0.98 (≈ 0.429 µg/mL) | MIC ([10]; 48 h): 1.95 µM (≈ 0.854 µg/mL); MIC [11]: < 1 µM
